# Patent US5620675A, “Radioactive peptides” (Diatech, Inc., priority 1993, dated 1997)
# Starred links: 1 amine or outer side, 2 acyl side, 3 side chain; linkers in the order of their positions; H or OH if unused. Non-standard residues stand in square brackets, D forms with d. Residues, ends and D or L forms follow the SMILES beside them. *: point of attachment. DTPA = O=C(O)CN(CCN(CC(=O)O)CC(=O)O)CCN(CC(=O)O)CC(=O)*; Phe(4-Cl) = N[C@@H](Cc1ccc(Cl)cc1)C(=O)O; X4 = CC(C)(S)CNCCN(CCCCC(=O)*)CC(C)(C)S; 2Nal = N[C@@H](Cc1ccc2ccccc2c1)C(=O)O; d2Nal = N[C@H](Cc1ccc2ccccc2c1)C(=O)O; εLys = N[C@@H](CCCCN[*:1])C(=O)[*:2]; Acm = CC(=O)NC*
# Molecular target: T1, somatostatin receptor (Rattus norvegicus, UniProt P30680)
# T1 construct: endogenous in cells; host or cells: AR42J rat pancreatic tumor cell line (membrane preparation)
# T1 sequence (P30680 whole entry): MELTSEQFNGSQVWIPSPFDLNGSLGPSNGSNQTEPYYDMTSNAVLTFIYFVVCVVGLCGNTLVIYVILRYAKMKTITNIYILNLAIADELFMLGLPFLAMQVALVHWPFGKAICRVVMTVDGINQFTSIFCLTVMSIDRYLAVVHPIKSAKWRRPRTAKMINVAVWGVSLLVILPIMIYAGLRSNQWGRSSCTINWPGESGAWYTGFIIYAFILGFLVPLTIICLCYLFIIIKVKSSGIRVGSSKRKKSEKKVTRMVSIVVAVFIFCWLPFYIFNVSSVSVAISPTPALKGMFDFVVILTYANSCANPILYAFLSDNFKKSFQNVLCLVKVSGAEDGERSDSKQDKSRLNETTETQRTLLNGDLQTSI
# Experiment: Inhibition of binding of [125I-Tyr11]somatostatin-14 to AR42J rat pancreatic tumor cell membranes
# Conditions: inhibition constant; displacement of 0.5 nM [125I-Tyr11]somatostatin-14 from AR42J cell membranes, 25 min at 30° C; free peptides and [Re=O]-complexed peptides
# Protocol: Inhibition of Binding of [^125 I-Tyr^11 ]somatostatin-14 to AR42J Rat Pancreatic Tumor Cell Membranes
# The rat pancreatic tumor cell line AR42J which expresses the somatostatin receptor was cultured in Dulbecco's minimal essential media (DMEM) supplemented with 10% fetal bovine serum (FBS) and 8 mM glutamine in a humdified 5% CO2 atmosphere at 37° C. in T-flasks. Harvested cells were homogenized in cold 50 mM Tris-HCl buffer (pH 7.4) and the homogenate then centrifuged at 39,000 g for 10 min at 4° C. Pellets were washed once with buffer and then resuspended in an ice-cold solution of 10 mM Tris-HCl (pH 7.4). Equal aliquots of this cell membrane preparation were incubated with [^125 I-Tyr^11 ]somatostatin-14 (at a final concentration of 0.5nM and 750,000 cpm/mL, at a specific activity of 2000 Ci/mmol, Amersham, Arlington Heights, Ill.) and peptide at a final concentration of from 10^-11 M to 10^-6 M in a solution of 50 mM HEPES (pH 7.4) containing 1% bovine serum albumin (BSA), 5 mM MgCl2, Trasylol (200,000 International Units), bacitracin (0.02 mg/mL) and phenylmethylsulfonylfluoride (0.02 mg/mL) for 25 min at 30° C. Using a filtration manifold, this mixture was filtered through a polyethyleneimine-washed GC/F filter (Whatman, Maidstone, England), and the residue remaining on the filter wastled thrice with 5 mL cold HEPES buffer. The filter and a sample of the filter washings were then counted in a gamma counter. To assess non-specific binding, the assay was performed in the presence of unlabeled somatostatin-14 at 200 nM. Data analysis including Hill plots of the data provided inhibition constants (see Bylund & Yamamura, "Methods of receptor binding", in Methods in Neurotransmitter Receptor Analysis, Yamamura et al., eds., Raven Press: New York, 1990).
row,Compound,Ki
1,"CC(=O)NCSC[C@H](NC(C)=O)C(=O)NCC(=O)N[C@@H](CSCNC(C)=O)C(=O)N[C@H](Cc1ccccc1)C(=O)N[C@@H](Cc1ccc(Cl)cc1)C(=O)N[C@@H](Cc1ccc(O)cc1)C(=O)N[C@H](Cc1c[nH]c2ccccc12)C(=O)N[C@@H](CCCCN)C(=O)N[C@H](C(=O)N[C@@H](Cc1ccccc1)C(=O)N[C@H](C(N)=O)[C@@H](C)O)[C@@H](C)O [Ac.CAcm GCAcm FD.CPa.YWD KTFT.amide, Ac.CAcm GCAcm FD.Cpa.YWD KTFT.amide] (Ac-C(Acm)GC(Acm)[dF][Phe(4-Cl)]Y[dW]KTFT-NH2)",0.73 nM
2,CC(=O)N[C@@H](CS)C(=O)NCC(=O)N[C@@H](CS)C(=O)N[C@H](Cc1ccccc1)C(=O)N[C@@H](Cc1ccc(Cl)cc1)C(=O)N[C@@H](Cc1ccc(O)cc1)C(=O)N[C@H](Cc1c[nH]c2ccccc12)C(=O)N[C@@H](CCCCN)C(=O)N[C@H](C(=O)N[C@@H](Cc1ccccc1)C(=O)N[C@H](C(N)=O)[C@@H](C)O)[C@@H](C)O [Ac.CGCFD.Cpa.YWD KTFT.amide] (Ac-CGC[dF][Phe(4-Cl)]Y[dW]KTFT-NH2),4.4 nM
3,CC(=O)N[C@H](Cc1ccccc1)C(=O)N[C@@H](Cc1ccccc1)C(=O)N[C@@H](Cc1ccc(O)cc1)C(=O)N[C@H](Cc1c[nH]c2ccccc12)C(=O)N[C@@H](CCCCN)C(=O)N[C@H](C(=O)N[C@@H](Cc1ccccc1)C(=O)N[C@H](C(=O)NCC(=O)NCC(=O)NCC(=O)NCCCC[C@H](N)C(=O)NCC(=O)N[C@@H](CS)C(N)=O)[C@@H](C)O)[C@@H](C)O [Ac.FD FYWD KTFTGGG(ε-K)GC.amide] (Ac-[dF]FY[dW]KTFTGGG[εLys]GC-NH2),8.2 nM
4,C[C@@H](O)[C@H](NC(=O)[C@H](CCCCN)NC(=O)[C@@H](Cc1c[nH]c2ccccc12)NC(=O)[C@H](Cc1ccc(O)cc1)NC(=O)[C@H](Cc1ccc(Cl)cc1)NC(=O)[C@H](N)Cc1ccccc1)C(=O)N[C@@H](CS)C(=O)N[C@@H](Cc1ccc2ccccc2c1)C(N)=O [FD.Cpa.YWD KTC.Nal.amide] (H-[dF][Phe(4-Cl)]Y[dW]KTC[2Nal]-NH2),8.2 nM
5,"CSC[C@H](NC(=O)[C@@H](NC(=O)[C@H](CCCCN)NC(=O)[C@@H](Cc1c[nH]c2ccccc12)NC(=O)[C@H](Cc1ccc(O)cc1)NC(=O)[C@H](CSC)NC(=O)[C@@H](Cc1ccc2ccccc2c1)NC(=O)[C@@H](N)CCCCNC(=O)CCCCN(CCNCC(C)(C)S)CC(C)(C)S)C(C)C)C(=O)N[C@H](C(N)=O)[C@@H](C)O [K.[BAT].D-Nal.CMe YWD KVCMe T.amide, K(BAT).D-Nal.CMe YWD KVCMe T.amide] (H-K(X4)[d2Nal]C(Me)Y[dW]KVC(Me)T-NH2; N-terminus assumed)",9.9 nM
6,C[C@@H](O)[C@H](NC(=O)[C@H](Cc1ccccc1)NC(=O)[C@@H](NC(=O)[C@H](CCCCN)NC(=O)[C@@H](Cc1c[nH]c2ccccc12)NC(=O)[C@H](Cc1ccc(O)cc1)NC(=O)[C@H](Cc1ccccc1)NC(=O)[C@@H](Cc1ccccc1)NC(=O)[C@H](CS)NC(=O)CNC(=O)[C@@H](N)CCCCNC(=O)CN(CCN(CCN(CC(=O)O)CC(=O)O)CC(=O)O)CC(=O)O)[C@@H](C)O)C(N)=O [[DTPA].(ε-K)GCFD.FYWD KTFT.amide] (H-K(DTPA)GC[dF]FY[dW]KTFT-NH2),3.3 nM
7,AKCGGGFD FYWD KTFT.amide,2.9 nM
8,AKCGGGFD.Cpa.YWD KTFT.amide,0.76 nM
9,FD.Cpa.YWD KTFT(ε-K)GC.amide,0.36 nM
10,[DTPA].Aca.FD.Cpa.YWD KTFT(ε-K)GC.amide,8.2 nM
11,[DTPA].FD.Cpa.YWD KTFT(ε-K)GC.amide,0.027 nM
12,maGGGFD.Cpa.YWD KTFT.amide,0.97 nM

# Continued, values first:
row,Ki,Compound
1,0.85 nM,"CC(=O)NCSC[C@H](NC(=O)CNC(=O)[C@H](CSCNC(C)=O)NC(=O)[C@@H](NC(=O)[C@H](Cc1ccccc1)NC(=O)[C@@H](NC(=O)[C@H](CCCCN)NC(=O)[C@@H](Cc1c[nH]c2ccccc12)NC(=O)[C@H](Cc1ccc(O)cc1)NC(=O)[C@H](Cc1ccc(Cl)cc1)NC(=O)[C@H](N)Cc1ccccc1)[C@@H](C)O)[C@@H](C)O)C(N)=O [FD.CPa.YWD KTFTCAcm GCAcm.amide, FD.Cpa.YWD KTFTCAcm GCAcm.amide] (H-[dF][Phe(4-Cl)]Y[dW]KTFTC(Acm)GC(Acm)-NH2)"
2,2.4 nM,CC(=O)NCSC[C@H](NC(=O)CNC(=O)[C@H](CSCNC(C)=O)NC(=O)CNC(=O)CNC(=O)CNC(=O)[C@@H](NC(=O)[C@H](Cc1ccccc1)NC(=O)[C@@H](NC(=O)[C@H](CCCCN)NC(=O)[C@@H](Cc1c[nH]c2ccccc12)NC(=O)[C@H](Cc1ccc(O)cc1)NC(=O)[C@H](Cc1ccc(Cl)cc1)NC(=O)[C@H](N)Cc1ccccc1)[C@@H](C)O)[C@@H](C)O)C(N)=O [FD.Cpa.YWD KTFT.GGGCAcm GCAcm.amide] (H-[dF][Phe(4-Cl)]Y[dW]KTFTGGGC(Acm)GC(Acm)-NH2)
3,1.3 nM,C[C@@H](O)[C@H](NC(=O)[C@H](Cc1ccccc1)NC(=O)[C@@H](NC(=O)[C@H](CCCCN)NC(=O)[C@@H](Cc1c[nH]c2ccccc12)NC(=O)[C@H](Cc1ccc(O)cc1)NC(=O)[C@H](Cc1ccc(Cl)cc1)NC(=O)[C@@H](Cc1ccc2ccccc2c1)NC(=O)CN(CCN(CCN(CC(=O)O)CC(=O)O)CC(=O)O)CC(=O)O)[C@@H](C)O)C(=O)NCCCC[C@H](N)C(=O)NCC(=O)N[C@@H](CS)C(=O)N[C@@H](CCCCN)C(=O)N[C@@H](CCCCN)C(N)=O [[DTPA].D-Nal.Cpa.YWD KTFT(ε-K)GCKK.amide] ({DTPA}-[d2Nal][Phe(4-Cl)]Y[dW]KTFT[εLys]GCKK-NH2)
4,4.1 nM,Ac.CGCFD.Cpa.YWD KTFT.amide
5,6.1 nM,Ac.FD FYWD KTFGGG(ε-K)KC.amide
6,1.5 nM,Ac.FD FYWD KTFT(ε-K)GC.amide
7,8.1 nM,Ac.FD FYWD KTFTGGG(ε-K)GC.amide
8,0.37 nM,FD.CPa.YWD KTFTCGC.amide (not fully specified; Re=O complex; FD.CPa.YWD prefix; C-terminal amide)
9,3.3 nM,FD.Cpa.YWD K.Abu.Nal.T(ε-K)GC.amide
10,0.007 nM,[DTPA].D-Nal.Cpa.YWD KTFT(ε-K)GC.amide
